# Entries after “also recorded” stand apart in the source; their conditions may differ.
# Tests used:
# [1] = Water solubility, stepwise addition of water, classed by USP23; format: physicochemical
# Protocol: 3 mg of lenalidomide (Combi-Block, Inc. San Diego, CA, USA) and ribose-lenalidomide were each weighed and placed in a 1.5 mL Eppendorf tube, 0.03 mL of water was added thereto, and then the mixture was vortexed for one minute and then centrifuged at 15,000 rpm for 1 minute, and an undissolved compound was precipitated. When the precipitated compound was visible, 0.03 mL of water was added, and the above process was repeated.
# The solubility was determined by Table 1 as defined in United States Pharmacopeia 23 (USP23).
# multiple myeloma = conditions: combination of lenalidomide and dexamethasone; cited from earlier work
# [2] = system: choroidal neovascularization lesion; test: Macular degeneration treatment effect, laser-induced mouse CNV model (wet AMD); format: in vivo; conditions: for CNV lesion, intravitreal administration: once immediately after laser irradiation, fluorescent staining of blood vessels
# Protocol: It was intended to confirm the healing efficacy of a lesion in a mouse CNV model, which is a wet senile macular degeneration (wet AMD) model.
# To this end, five C57BL/6 (Koatech, Korea) male mice (aged 7 weeks) were used, and after 1 week of acclimation, the 8-week-old mice were anesthetized using ketamine hydrochloride (100 mg/kg, I.P.), and a drop of Mydriacyl (tropicamide) eye drops was placed on the right eye to induce mydriasis. After 3 minutes, the mouse was placed on a stand attached to a slit lamp, and a coverslip was put on the right eye to serve as a contact lens. After illuminating the optic nerve head using the slip lamp, four laser spots (200 mW, 50 μm spot size, 100-ms duration) around the optic nerve head were irradiated using a 532 nm laser device (Irdiex Oculight Tx, USA) attached to the slit lamp.
# After forming a choroidal neovascularization lesion as described above, a solution prepared by dissolving ribose-lenalidomide in PBS was administered to the lesion. For intravitreal administration, 1.5 μL of the solution with a concentration of 0.2 μg/mL was administered once immediately after laser irradiation using a 25 μL Hamilton syringe with a 33G needle. Meanwhile, ribose-lenalidomide was dissolved in PBS to have a concentration of 2 mg/mL, prepared in the form of eye drops, administered four times a day, and then 7 days or 14 days after administration, efficacy was confirmed through fluorescent staining of blood vessels.
# Fluorescent staining was performed using Heidelberg Spectralis HRA+OCT device (Heidelberg, Germany) equipment, the mouse was anesthetized using ketamine hydrochloride (100 mg/kg, I.P.) and xylazine (10 mg/kg, I.P.), a drop of Mydriacyl (tropicamide) eye drops was placed on the right eye to induce mydriasis, 0.05 mL of 10% fluorescite (Alcon, USA) was administered via I.P. administration to stain blood vessels. Fluorescent images were taken 10 minutes after fluorescite injection.
# MM.1S cells = test: Tumor cell killing effect, CCK analysis; format: cell-based, human; conditions: 0 to 10 μM, 3 days, dissolved in DMSO or D.W.
# Protocol: To this end, a human multiple myeloma cell line, MM.1S (CRL-2974), was purchased from the American Type Culture Collection (ATCC, Manassas, VA, USA), and incubated using a RPMI1640 medium (Corning, MD, USA) supplemented with a 10% bovine fetal serum (Corning, MD, USA), 100 U/mL penicillin (Corning, MD, USA), and 100 μg/mL streptomycin (Corning, MD, USA) at 37° C. in a 5% CO2 incubator for 24 hours. The cells were seeded at 1×10^4 cells/well in a 96-well plate, incubated for 24 hours, further incubated for 3 days after treatment with 0, 0.005, 0.014, 0.041, 0.123, 0.37, 1.111, 3.333, or 10 μM of ribose-lenalidomide dissolved in DMSO or D.W., and then analyzed using a CCK analysis kit (Dojindo, Japan) according to the manufacturer's instructions.
# cereblon (CRBN) protein = target: T1, cereblon (CRBN) protein (Homo sapiens, UniProt Q96SW2); test: CRBN binding affinity, Alpha assay of competitive inhibition of CRBN-dBET1 binding; conditions: compared with the base lenalidomide or pomalidomide
# T1 construct: FLAG; purchased BPS Bioscience #79770
# Excerpt: An immunomodulatory amide-type compound such as lenalidomide is known to act by binding to the cereblon (CRBN) protein. Therefore, the binding affinity of ribose-lenalidomide for the cereblon (CRBN) protein was compared with that of its base, lenalidomide (Combi-Block, Inc. San Diego, CA, USA), for the cereblon (CRBN) protein.
# Aiolos = target: T2, Aiolos (Homo sapiens, UniProt Q96SW2+Q9UKT9); test: Aiolos degradation in MM.1S cells, western blot; format: cell-based; conditions: 1 μM or 10 μM, 24 hours
# T2 construct: endogenous in cells; host or cells: MM.1S (ATCC CRL-2974)
# Protocol: (§1) It is known that a thalidomide-based compound binds to an E3 ligase, cereblon (CRBN), and decomposes transcription factors Aiolos and Ikaros as substrates, thereby regulating the function of immune cells. Therefore, to confirm whether ribose-lenalidomide still maintains its immunomodulatory function, the Aiolos and Ikaros degradation effect was compared with its base, lenalidomide.
# (§2) After seeding the cells and incubating the cells for 24 hours, each compound was further incubated for 24 hours after treatment with 1 μM or 10 μM of each compound. The cells were lysed in a RIPA buffer containing a protease inhibitor cocktail (Thermo Fisher Scientific) and centrifuged at 14,000 rpm for 15 minutes at 4° C., thereby obtaining a cell extract. The cell extract was loaded at the same amount, separated using SDS-PAGE, and transferred to a PVDF membrane. The protein-transferred membrane was blocked using skim milk, subjected to o/n incubation with a primary antibody at 4° C., and incubated with an HRP-attached secondary antibody at 4° C. for 1 hour. The cells were washed with TBS-T three times between steps. Detection was performed by applying a chemiluminescence reagent (Thermo Fisher Scientific), and confirmation was performed using Chemidoc (iBright CL1000, Invitrogen, CA, USA).
# Ikaros = target: T3, Ikaros (Homo sapiens, UniProt Q13422+Q96SW2); test: Ikaros degradation in MM.1S cells, western blot; format: cell-based; conditions: 1 μM or 10 μM, 24 hours
# T3 construct: endogenous in cells; host or cells: MM.1S (ATCC CRL-2974)
# Protocol: as §1, §2
# CK1α = target: T4, CK1α (Homo sapiens, UniProt P48729+Q96SW2); test: CK1α degradation in MM.1S cells, western blot; format: cell-based; conditions: 1 μM or 10 μM, 24 hours
# T4 construct: endogenous in cells; host or cells: MM.1S (ATCC CRL-2974)
# Protocol: as §2
# SALL4 = target: T5, SALL4 (Homo sapiens, UniProt Q96SW2+Q9UJQ4); test: SALL4 degradation in Tera-1 cell line (HTB-105), western blot; format: cell-based; conditions: 1 or 10 μM, compared with the base compound
# T5 construct: endogenous in cells; host or cells: Tera-1 (ATCC HTB-105)
# Protocol: The cell extract was loaded at the same amount, separated using SDS-PAGE, and transferred to a PVDF membrane. The protein-transferred membrane was blocked using skim milk, subjected to o/n incubation with a primary antibody at 4° C., and incubated with an HRP-attached secondary antibody at 4° C. for 1 hour. The cells were washed with TBS-T three times between steps. Detection was performed by applying a chemiluminescence reagent (Thermo Fisher Scientific), and confirmation was performed using Chemidoc (iBright CL1000, Invitrogen, CA, USA).
smiles,measurement,setting,value
"Nc1cccc2c1CN(C1CCC(=O)NC1=O)C2=O (racemic) [lenalidomide, (RS)-3-(4-amino-1-oxo-1,3-dihydro-2H-isoindol-2-yl)piperidine-2,6-dione, reference compound]",water solubility in words,[1]; D.W.,completely insoluble in water; also recorded: barely dissolved in D.W
same,disease-free survival period,multiple myeloma,13.4 months
same,overall survival period,multiple myeloma,38 months
O=C1CCC(N2Cc3c(/N=C/[C@H](O)[C@@H](O)[C@H](O)[C@H](O)CO)cccc3C2=O)C(=O)N1 (stereo partly drawn) [glucose-lenalidomide (type 1)],"CNV lesion, intravitreal administration",[2],macular degeneration treatment effect was confirmed
O=C1CCC(N2C(=O)c3cccc(NC[C@H](O)[C@@H](O)[C@H](O)[C@H](O)CO)c3C2=O)C(=O)N1 (stereo partly drawn) [glucose-pomalidomide (type 2)],tumor cell killing effect / viability of MM.1S cells,MM.1S cells,not significantly reduced
O=C1CCC(N2Cc3c(/N=C/[C@H](O)[C@H](O)[C@H](O)CO)cccc3C2=O)C(=O)N1 (stereo partly drawn) [ribose-lenalidomide (type 1)],solubility term based on USP 23,[1]; water,freely soluble
same,solubility at 1 min,"[1]; water, thermodynamic from solid, D.W., no visible precipitate after vortexing and centrifugation",≥ 100 mg/mL
same,CRBN binding affinity,cereblon (CRBN) protein,improved binding affinity
same,tumor cell killing effect / viability of MM.1S cells,MM.1S cells,effective in killing MM.1S cells
same,Aiolos degradation effect,Aiolos,almost similar to lenalidomide
same,Ikaros degradation effect,Ikaros,almost similar to lenalidomide
same,CK1α degradation effect,CK1α,almost similar to lenalidomide
same,SALL4 degradation effect (teratogenic side effect),SALL4,inhibited SALL4 degradation effect compared to lenalidomide
same,"CNV lesion, eye drop administration","[2]; eye drops 2 mg/mL in PBS, four times a day, 7 or 14 days",distinct decrease in the lesion
same,"CNV lesion, intravitreal administration",[2],distinct decrease in the lesion

# — patent publication US20250197438A1, “IMMUNOREGULATORY AMIDE DERIVATIVE WITH IMPROVED MATERIAL PROPERTIES” (AEVIS BIO, INC., priority 2021, published 2025)
